Source: patent US20100331233A1, “CRYSTAL OF XPA AND ERCC1 COMPLEX AND USES THEREOF” (priority 2007, published 2010)
“Also recorded” adds a separate entry of the source. No end group written: not given here.

Molecular target: T1, central domain of ERCC1 (ERCC196-214) (Homo sapiens, UniProt P07992)
T1 construct: His6 (N); made in house; host or cells: E. coli BL21(DE3)
T1 sequence (P07992 96-214): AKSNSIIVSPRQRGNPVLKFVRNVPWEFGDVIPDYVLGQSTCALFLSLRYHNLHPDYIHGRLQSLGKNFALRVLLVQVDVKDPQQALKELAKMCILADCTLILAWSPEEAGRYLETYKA
Experiment: Competitive binding equilibrium titrations, fluorescence anisotropy of 6FAM-labeled single-stranded 40mer DNA
Protocol: Binding of a 6FAM-labeled single-stranded DNA 40mer to the central domain of ERCC1 was monitored by fluorescence polarization of the labeled DNA. DNA binding activity is plotted as a function of added XPA67-80 inhibitor. The theoretical curve given by Eq. 9 (solid line) corresponds to the best fit of the data to the dissociation equilibrium constant of 300 nM for the ERCC1-XPA complex.
Competitive binding equilibrium titrations. The equilibrium titrations were performed in a binding buffer containing 20 mM Tris, pH 8.0, 20 mM NaCl, 2 mM betamercaptoethanol. The concentrations of single-stranded 5′ 6-FAM-labeled DNA (5′-CCGGTGGCCAGCGCTCGGCG(T)20; SEQ ID NO:9) and ERCC196-214 were 50 nM and 2.33 μM, respectively, the concentration of the XPA peptide was varied from 0 to 30 μM (FIG. 7). Fluorescence anisotropy measurements were performed as previously reported (Tsodikov et al., 2005). Increasing XPA peptide concentration above 30 μM caused an increase in fluorescence anisotropy and quenching of fluorescence due to nonspecific interactions with the peptide, observed in the presence or absence of ERCC1 (data not shown).
The simplest binding model used in the data analysis consisted of two competitive equilibria, binding of XPA peptide and of the single-stranded 6FAM-labeled 40-mer DNA to the central domain of ERCC1. This model is consistent with the fact that at sufficiently high XPA concentration, the fluorescence anisotropy signal approaches that of unbound DNA. Therefore the two binding equilibria could be written as:
where E, D, X represent the ERCC1, DNA and XPA species, respectively. ED and EX represent ERCC1-DNA and ERCC1-XPA complexes, and KDNA and KXPA are the observed equilibrium association constants, defined in terms of the equilibrium concentrations of the species from Eqs. (2a) and (2b) as:
The approximation made in Equation (4b) is due to the large excess of ERCC1 over DNA at the experimental conditions. It was assumed that each single-stranded 40-mer DNA oligonucleotide contains only one binding site for ERCC1. Because the central domain of ERCC1 occludes 10-15 nucleotides upon binding DNA (1), with a reasonable approximation, a maximum of 2-3 ERCC1 molecules could simultaneously bind to one DNA molecule without significant cooperativity. In this analysis, a value of (KDNA)−1=1.5 μM was used, obtained from the direct titration of ERCC1 at constant concentration (50 nM) of the same DNA oligomer, using the same single site approximation (1). Therefore the value of the equilibrium binding constant for XPA-ERCC1 complex formation, KXPA, should be unaffected by the stoichiometry of ERCC1-DNA binding.
The system of Eqs. 4a, 4b and 4c yields expressions for [E], [X] and [D], which are then used to determined the fraction of bound DNA species, f, as follows:
The observed fluorescence anisotropy, r, is then given by
where r0 and rmax are fluorescent anisotropy values of unbound and fully bound DNA, respectively. […]
XPA competes with single-stranded DNA for binding to ERCC1. Because XPA binds in the groove on ERCC1 (FIG. 2) that was previously implicated in DNA binding activity (Tsodikov et al., 2005), it was determined whether or not XPA competes with single-stranded DNA for binding to ERCC1. DNA binding activity was measured by monitoring fluorescence anisotropy, using single-stranded 40mer oligonucleotide labeled on the 5′ end with 6-carboxyfluorescein. […]

KIIDTGGGFILEEE [XPA67-80]
affinity for central domain of ERCC1 relative to single stranded DNA: approximately 3 fold | Kd (best fit of competition titration to Eq. 9, 50 nM DNA, 2.33 μM ERCC196-214, read-out: dissociation equilibrium constant (Kd) of the XPA-ERCC1 complex): 300 nM | EC50 for binding of XPA67-80 (competition with 6FAM single-stranded 40mer DNA, accurate measurement precluded by quenching): in the micromolar range | competition with single-stranded DNA for binding to ERCC1 (fluorescence anisotropy / polarization): does compete with DNA for binding to ERCC1; also recorded: competitive inhibitor | binding of peptide to DNA (single-stranded 40mer, fluorescence anisotropy): does not detectably bind to DNA
